This is an account of results in the supplement of paper PMC11424490.

The structures appear in SMILES notation.

Holding throughout (experiment): combination cScore with adagrasib (Bliss gap around IC50) (%PoC); higher = stronger additive effect
One assay concerns NCI-H2122. The method, boiled down: (§1)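 After 24 h in 384-well plates (500 or 800 cells per well), NCI-H2122, NCI-H358 and SW837 cells received concentration matrices and grew for 72 h, except SW837, which grew for 144 h. CellTiter-Glo readings were scaled to vehicle wells and fitted with four-parameter curves. Each score is the averaged Bliss-independence difference (expected minus measured viability) over a region around both monotherapy IC50s, or at top concentrations when no IC50 was reached.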

Another assay deals with NCI-H358. The method, boiled down:
as §1

The next assay relates to SW837. The gist of the method: as §1

Regarding `CC(C)N(CCCNC(=O)Nc1ccc(C(C)(C)C)cc1)C[C@H]1O[C@@H](n2ccc3c(N)ncnc32)[C@H](O)[C@@H]1O` + C=C(F)C(=O)N1CCN(c2nc(OC[C@@H]3CCCN3C)nc3c2CCN(c2cccc4cccc(Cl)c24)C3)C[C@@H]1CC#N [adagrasib], the “combination cScore with adagrasib” value worked out at 19.1 in the assay with NCI-H2122, 9.87 in the assay with NCI-H358 and 2.74 in the assay on SW837.
Take `Cc1c(-c2c(-c3ccc(F)o3)sc3ncnc(O[C@H](Cc4ccccc4OCc4ccnn4CC(F)(F)F)C(=O)O)c23)ccc(OCCN2CCN(C)CC2)c1Cl` + C=C(F)C(=O)N1CCN(c2nc(OC[C@@H]3CCCN3C)nc3c2CCN(c2cccc4cccc(Cl)c24)C3)C[C@@H]1CC#N [adagrasib]: the “combination cScore with adagrasib” value in the assay on NCI-H2122 stood at 8.13; with NCI-H358, 5.46; with SW837, 4.73.
Turning to `Cc1c(Cn2c(C)nc3c(C(=O)O)cc(N4CCOCC4)cc32)cccc1C(F)(F)F` + C=C(F)C(=O)N1CCN(c2nc(OC[C@@H]3CCCN3C)nc3c2CCN(c2cccc4cccc(Cl)c24)C3)C[C@@H]1CC#N [adagrasib], the results for the “combination cScore with adagrasib” value with NCI-H2122, with NCI-H358 and in the assay with SW837 were 8.98, -4.04 and -1.49, respectively.
Take `O=C(C1CC1)N1CC[C@@H](Cn2c(-c3ccc(-c4ccc5occc5c4)cc3)nc3cnccc32)C1` + C=C(F)C(=O)N1CCN(c2nc(OC[C@@H]3CCCN3C)nc3c2CCN(c2cccc4cccc(Cl)c24)C3)C[C@@H]1CC#N [adagrasib]: the entries for the “combination cScore with adagrasib” value with NCI-H2122, with NCI-H358 and in the assay on SW837 were 7.98, 7.72 and 7.68, respectively.
For the compound `O=c1cc(-c2cccc3c2Sc2ccccc2S3)oc(N2CCOCC2)c1` + C=C(F)C(=O)N1CCN(c2nc(OC[C@@H]3CCCN3C)nc3c2CCN(c2cccc4cccc(Cl)c24)C3)C[C@@H]1CC#N [adagrasib], the results for the “combination cScore with adagrasib” value in the assay with NCI-H2122, in the assay on NCI-H358 and in the assay on SW837 were 12.4, 7.9 and 4.85, respectively.
Turning to `CC1(C)CCC(c2ccc(Cl)cc2)=C(CN2CCN(c3ccc(C(=O)NS(=O)(=O)c4ccc(N[C@H](CCN5CCOCC5)CSc5ccccc5)c(S(=O)(=O)C(F)(F)F)c4)cc3)CC2)C1` [ABT-263] + C=C(F)C(=O)N1CCN(c2nc(OC[C@@H]3CCCN3C)nc3c2CCN(c2cccc4cccc(Cl)c24)C3)C[C@@H]1CC#N [adagrasib], the figures for the “combination cScore with adagrasib” value in the assay with NCI-H2122, in the assay with NCI-H358 and in the assay on SW837 were 12.1, 6.81 and 30.9, respectively.
As for `COc1cc(CCc2cc(NC(=O)c3ccc(N4CC(C)NC(C)C4)cc3)n[nH]2)cc(OC)c1` (stereo unspecified) [AZD4547] + C=C(F)C(=O)N1CCN(c2nc(OC[C@@H]3CCCN3C)nc3c2CCN(c2cccc4cccc(Cl)c24)C3)C[C@@H]1CC#N [adagrasib], the “combination cScore with adagrasib” value is 11.3 with NCI-H2122, -1.38 in the assay on NCI-H358 and 5.13 in the assay on SW837.
Taken in the same sequence, the figures for `CCN(CCCOc1ccc2c(Nc3cc(CC(=O)Nc4cccc(F)c4)[nH]n3)ncnc2c1)CCOP(=O)(O)O` [AZD-1152] + C=C(F)C(=O)N1CCN(c2nc(OC[C@@H]3CCCN3C)nc3c2CCN(c2cccc4cccc(Cl)c24)C3)C[C@@H]1CC#N [adagrasib] were 12.7, 2.1 and 4.03.
On to `CCN1CCN(Cc2ccc(Nc3ncc(F)c(-c4cc(F)c5nc(C)n(C(C)C)c5c4)n3)nc2)CC1` [Abemaciclib] + C=C(F)C(=O)N1CCN(c2nc(OC[C@@H]3CCCN3C)nc3c2CCN(c2cccc4cccc(Cl)c24)C3)C[C@@H]1CC#N [adagrasib], for which the results for the “combination cScore with adagrasib” value in the assay with NCI-H2122, with NCI-H358 and in the assay on SW837 were 5.55, 4.46 and 12.5, respectively.
`CN(C)C/C=C/C(=O)Nc1cc2c(Nc3ccc(F)c(Cl)c3)ncnc2cc1O[C@H]1CCOC1` [Afatinib] + C=C(F)C(=O)N1CCN(c2nc(OC[C@@H]3CCCN3C)nc3c2CCN(c2cccc4cccc(Cl)c24)C3)C[C@@H]1CC#N [adagrasib]: the “combination cScore with adagrasib” value was determined as 11.1 with NCI-H2122, 11.5 with NCI-H358 and 21.2 in the assay with SW837.
For `COc1cc2nc(C)nc(N[C@H](C)c3cc(N)cc(C(F)(F)F)c3)c2cc1O[C@H]1CCOC1` [BI-3406 (SOSi)] + C=C(F)C(=O)N1CCN(c2nc(OC[C@@H]3CCCN3C)nc3c2CCN(c2cccc4cccc(Cl)c24)C3)C[C@@H]1CC#N [adagrasib], the “combination cScore with adagrasib” value in the assay with NCI-H2122 was 28; with NCI-H358, 10.7; in the assay with SW837 it was 19.4.
Consider `Nc1cc(C(F)(F)F)c(-c2cc(N3CCOCC3)nc(N3CCOCC3)n2)cn1` [BKM120] + C=C(F)C(=O)N1CCN(c2nc(OC[C@@H]3CCCN3C)nc3c2CCN(c2cccc4cccc(Cl)c24)C3)C[C@@H]1CC#N [adagrasib], for which the “combination cScore with adagrasib” value with NCI-H2122 came out at 12.9; with NCI-H358, 2.43; with SW837, 9.24.
Turning to `Cc1nc(NC(=O)N2CCC[C@H]2C(N)=O)sc1-c1ccnc(C(C)(C)C(F)(F)F)c1` [BYL-719] + C=C(F)C(=O)N1CCN(c2nc(OC[C@@H]3CCCN3C)nc3c2CCN(c2cccc4cccc(Cl)c24)C3)C[C@@H]1CC#N [adagrasib], the “combination cScore with adagrasib” value in the assay with NCI-H2122 amounted to 14.3; with NCI-H358, 3.99; in the assay on SW837, 17.
As for `COC(=O)[C@]12CCC(C)(C)C[C@H]1[C@H]1C(=O)C=C3[C@@]4(C)C=C(C#N)C(=O)C(C)(C)[C@@H]4CC[C@@]3(C)[C@]1(C)CC2` [Bardoxolone methyl] + C=C(F)C(=O)N1CCN(c2nc(OC[C@@H]3CCCN3C)nc3c2CCN(c2cccc4cccc(Cl)c24)C3)C[C@@H]1CC#N [adagrasib], the results for the “combination cScore with adagrasib” value with NCI-H2122, with NCI-H358 and in the assay with SW837 were 5.12, -4.25 and 0.43, respectively.
In the case of `O=C(/C=C/c1cccc(S(=O)(=O)Nc2ccccc2)c1)NO` [Belinostat] + C=C(F)C(=O)N1CCN(c2nc(OC[C@@H]3CCCN3C)nc3c2CCN(c2cccc4cccc(Cl)c24)C3)C[C@@H]1CC#N [adagrasib], the “combination cScore with adagrasib” value is 7.12 with NCI-H2122, -4.65 in the assay with NCI-H358 and 5.49 in the assay with SW837.
For `Cc1c(N)nc([C@H](CC(N)=O)NC[C@H](N)C(N)=O)nc1C(=O)N[C@H](C(=O)N[C@H](C)[C@@H](O)[C@H](C)C(=O)N[C@H](C(=O)NCCc1nc(-c2nc(C(=O)NCCC[S+](C)C)cs2)cs1)[C@@H](C)O)[C@@H](OC1OC(CO)C(O)C(O)C1OC1OC(CO)C(O)C(OC(N)=O)C1O)c1cnc[nH]1` (stereo partly specified) [Bleomycin] + C=C(F)C(=O)N1CCN(c2nc(OC[C@@H]3CCCN3C)nc3c2CCN(c2cccc4cccc(Cl)c24)C3)C[C@@H]1CC#N [adagrasib], the “combination cScore with adagrasib” value in the assay with NCI-H2122 was 17.2; with NCI-H358, -5.7; in the assay with SW837, 7.34.
For `CC(C)C[C@H](NC(=O)[C@H](Cc1ccccc1)NC(=O)c1cnccn1)B(O)O` [Bortezomib] + C=C(F)C(=O)N1CCN(c2nc(OC[C@@H]3CCCN3C)nc3c2CCN(c2cccc4cccc(Cl)c24)C3)C[C@@H]1CC#N [adagrasib] the same measures were 4.5, 0 and -1.68.
For `COc1cc(Nc2c(C#N)cnc3cc(OCCCN4CCN(C)CC4)c(OC)cc23)c(Cl)cc1Cl` [Bosutinib] + C=C(F)C(=O)N1CCN(c2nc(OC[C@@H]3CCCN3C)nc3c2CCN(c2cccc4cccc(Cl)c24)C3)C[C@@H]1CC#N [adagrasib], the “combination cScore with adagrasib” value with NCI-H2122 worked out at 14.5; in the assay with NCI-H358, 1.58; with SW837, 6.35.
Take `CC[C@H](Nc1ncnc2[nH]cnc12)c1nc2cccc(F)c2c(=O)n1-c1ccccc1` [Cal-101] + C=C(F)C(=O)N1CCN(c2nc(OC[C@@H]3CCCN3C)nc3c2CCN(c2cccc4cccc(Cl)c24)C3)C[C@@H]1CC#N [adagrasib]: the “combination cScore with adagrasib” value with NCI-H2122 turned out to be 14.1; in the assay on NCI-H358 it was 5.08; in the assay on SW837 it was 1.53.
Take `O=P1(N(CCCl)CCCl)NCCCO1` (stereo unspecified) [Cyclophosphamide] + C=C(F)C(=O)N1CCN(c2nc(OC[C@@H]3CCCN3C)nc3c2CCN(c2cccc4cccc(Cl)c24)C3)C[C@@H]1CC#N [adagrasib]: the entries for the “combination cScore with adagrasib” value in the assay with NCI-H2122, in the assay with NCI-H358 and in the assay with SW837 were -0.77, -0.63 and -0.5, respectively.
For the compound `Cc1nc(Nc2ncc(C(=O)Nc3c(C)cccc3Cl)s2)cc(N2CCN(CCO)CC2)n1` [Dasatinib] + C=C(F)C(=O)N1CCN(c2nc(OC[C@@H]3CCCN3C)nc3c2CCN(c2cccc4cccc(Cl)c24)C3)C[C@@H]1CC#N [adagrasib], the “combination cScore with adagrasib” value in the assay with NCI-H2122 is 42; with NCI-H358, 8.94; with SW837, 14.7.
With `COc1cccc2c1C(=O)c1c(O)c3c(c(O)c1C2=O)C[C@@](O)(C(C)=O)C[C@@H]3O[C@H]1C[C@H](N)[C@H](O)[C@H](C)O1` [Daunorubicin] + C=C(F)C(=O)N1CCN(c2nc(OC[C@@H]3CCCN3C)nc3c2CCN(c2cccc4cccc(Cl)c24)C3)C[C@@H]1CC#N [adagrasib], the “combination cScore with adagrasib” value in the assay with NCI-H2122 was 4.15; in the assay on NCI-H358 it was -0.64; with SW837, 4.77.
